The text below walks through data of patent publication US11524003B2, “Alpha-amino esters of hydroxypropylthiazolidine carboxamide derivative and salt form, crystal polymorph thereof” (ObsEva S.A., priority 2016, dated 2022).

Data set [1] is described as follows: Solubility in water, FaSSIF and FeSSIF. It counts as physicochemical.
Data set [2] deals with spontaneous uterine contractions. Description: Spontaneous uterine activity in late-term anaesthetized pregnant rat. The conditions noted are these: late-term pregnant rats. In kind it is in vivo. The source says: The tocolytic effects of compound I and compound II were investigated in a model of spontaneous uterine activity in late-term (19-21 days of gestation) anaesthetized pregnant rat (Kawarabayashi et al. Am. J. Obstet. Gynecol. 175:1348-1355 (1996) and Shinkai et al. J. Pharm. Pharmacol. 52:1417-1423 (2000)). Briefly, late-term pregnant female rats were anaesthetized with urethane. One pregnant uterine horn was exposed and a polyethylene catheter bearing on the tip a latex balloon filled with saline was inserted into the lumen. The catheter was connected to an amplifying/recording system via a pressure-transducer. […] The percent variation of the AUC values relative to the spontaneous uterine response observed after each compound administration was calculated in comparison to the value recorded before the first dose-administration (basal value). The effect of compound I or compound II was evaluated by comparing pre- and post-treatment luminal uterine pressure values. For the oral administration the same computation procedure was applied at different time points after treatment. Statistical differences between treatment groups at each time-point were determined by using one-way ANOVA followed by Tukey test. Both compounds intravenously or orally administered were able to markedly reduce spontaneous uterine

The nature of data set [3]: In vivo conversion of compound I to compound II. As to the method: The invention is based on the discovery that compound I ((3S)-3-({[(2S)-3-(biphenyl-4-ylsulfonyl)-1,3-thiazolidin-2-yl]carbonyl}-amino)-3-(4-fluorophenyl)propyl L-valinate, represented by formula I, below) and salts thereof are converted in vivo to 3-([1,1′-biphenyl]-4-ylsulfonyl)-N-[1-(4-fluorophenyl)-3-hydroxypropyl]-1,3-thiazolidine-2-carboxamide (represented by formula II, below).
Compound II is a competitive and reversible prostaglandin F2α receptor antagonist (human FP2α receptor Ki=6 nM) that is under development for the management of preterm labor by inhibition of premature uterine contractions.

Data set [4] can be described thus: Non-specific binding to cell-free transwells. In kind it is in vitro ADME. Conditions: 1.5, 3 and 6 μM; apical pH 6.5, basolateral pH 7.4. As to the method: Non-specific binding and recovery was assessed across cell-free transwells.
Compound I was tested at 1.5, 3 and 6 μM in duplicate cell-free transwells. The test was performed in a pH gradient between the apical and the basolateral compartment. […] The following sampling times were performed: 60 and 120 min for the basolateral compartment (receiver) and 120 min for the apical compartment (donor). Samples obtained were analyzed by LC-MS, both compound I and compound II were monitored in order to assess percent of recovery.

The nature of data set [5]: Stability in HBSS buffer of the Caco-2 experiments. In kind it is in vitro ADME. The conditions noted are these: HBSS buffer (2% DMSO final concentration) at 37° C. for 60 and 120 minutes. As to the method: Stability of both compound I and compound II was assessed during the test. […] An aliquot of each solution was sampled at time zero (t=0) to assess the starting concentrations of the compounds. The solutions were incubated at 37° C. for the duration of the transport experiment. An aliquot of each solution was sampled at the end of experiment (t=120) to assess the final concentrations of compound I and compound II. Samples were analyzed by LC-MS.

A further data set concerns Caco-2 cell monolayer. The experiment in a line: Bidirectional permeability across Caco-2 cell monolayers. It counts as in vitro ADME, human. As to the method: Compound I was dissolved in HBSS buffer (1% DMSO final concentration) at the concentrations of 1.5, 3 and 6 μM. Each concentration/sampling time was run in duplicate well. The test was performed in a gradient pH: the apical compartment (mucosal) was at pH 6.5, the basolateral compartment (serosal) was at pH 7.4.
Apical to basolateral (A→B, mucosal to serosal) transport: 200 μL of each concentration of compound I was added to the apical compartment and 400 μL of HBSS was added to the basolateral compartment. The plates were incubated at 37° C. An aliquot of the basolateral compartment was sampled after 60 and 120 min (t=60 and t=120). An aliquot of the apical compartment was sampled at the starting time (t=0) and after 120 min. (t=120).
Basolateral to apical (B→A, serosal to mucosal) transport: 400 μL of each concentration of compound I was added to the basolateral compartment and 200 μL of HBSS was added to the apical compartment. The plates were incubated at 37° C. An aliquot of the apical compartment was sampled after 60 and 120 min (t=60 and t=120). An aliquot of the basolateral compartment was sampled at the starting time (t=0) and after 120 min. (t=120). All samples were analyzed by LC/MS monitoring both compound I and the appearance of compound II.
Compound II was dissolved in HBSS buffer (1% DMSO final concentration) at the concentrations of 1.5, 3 and 6 μM. Each concentration/sampling time was run in duplicate well. The test was performed in a gradient pH: the apical compartment (mucosal) was at pH 6.5, the basolateral compartment (serosal) was at pH 7.4.
Apical to basolateral (A→B, mucosal to serosal) transport: 200 μL of each concentration of compound II was added to the apical compartment and 400 μL of HBSS was added to the basolateral compartment. The plates were incubated at 37° C. An aliquot of the basolateral compartment was sampled after 60 and 120 min (t=60 and t=120). An aliquot of the apical compartment was sampled at the starting time (t=0) and after 120 min. (t=120).
Basolateral to apical (B→A, serosal to mucosal) transport: 400 μL of each concentration of compound II was added to the basolateral compartment and 200 μL of HBSS was added to the apical compartment. The plates were incubated at 37° C. An aliquot of the apical compartment was sampled after 60 and 120 min (t=60 and t=120). An aliquot of the basolateral compartment was sampled at the starting time (t=0) and after 120 min. (t=120). All samples were analyzed by LC/MS monitoring compound II.
A general note: Caco-2 monolayers are a common model of the intestinal barrier.

A further data set addresses T1, PepT1 transporter (Homo sapiens, UniProt P46059).
T1 construct: host or cells: Caco-2
T1 sequence (P46059 1-708): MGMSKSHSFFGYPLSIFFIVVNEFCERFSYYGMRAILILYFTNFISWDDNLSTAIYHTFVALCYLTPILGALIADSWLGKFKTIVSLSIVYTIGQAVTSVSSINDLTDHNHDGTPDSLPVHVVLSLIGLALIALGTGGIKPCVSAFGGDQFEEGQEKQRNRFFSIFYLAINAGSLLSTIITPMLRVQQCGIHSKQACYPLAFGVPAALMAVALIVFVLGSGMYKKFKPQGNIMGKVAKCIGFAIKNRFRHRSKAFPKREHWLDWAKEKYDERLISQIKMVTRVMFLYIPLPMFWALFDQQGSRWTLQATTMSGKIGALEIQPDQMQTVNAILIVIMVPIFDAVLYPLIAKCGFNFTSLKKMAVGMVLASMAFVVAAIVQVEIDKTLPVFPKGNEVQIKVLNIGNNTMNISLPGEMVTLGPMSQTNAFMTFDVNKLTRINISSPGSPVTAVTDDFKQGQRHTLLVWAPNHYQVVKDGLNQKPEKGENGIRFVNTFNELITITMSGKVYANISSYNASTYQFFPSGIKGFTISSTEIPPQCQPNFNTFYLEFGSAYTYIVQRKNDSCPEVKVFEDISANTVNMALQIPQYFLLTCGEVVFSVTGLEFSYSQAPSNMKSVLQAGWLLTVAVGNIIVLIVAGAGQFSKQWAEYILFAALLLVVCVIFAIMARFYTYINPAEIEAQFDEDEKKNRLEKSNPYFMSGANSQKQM
Description: Mucosal-to-serosal transport in Caco-2 after pre-treatment with PepT1 substrate Gly-Sar. In kind it is in vitro ADME. As to the method: The differentiated cells were pre-treated for 30 min. with 10 mM of Gly-Sar in order to block the active transporter PepT1.
Compound I was dissolved in HBSS buffer (1% DMSO final concentration) at the concentrations of […]. Each concentration/sampling time was run in duplicate well. The test was performed in a gradient pH: the apical compartment (mucosal) was at pH 6.5, the basolateral compartment (serosal) was at pH 7.4.
Apical to basolateral (A→B, mucosal to serosal) transport: 200 μL of each concentration of compound I was added to the apical compartment and 400 μL of HBSS was added to the basolateral compartment. The plates were incubated at 37° C. An aliquot of the basolateral compartment was sampled after 60 and 120 min (t=60 and t=120). An aliquot of the apical compartment was sampled at the starting time (t=0) and after 120 min. (t=120). All samples were analyzed by LC/MS monitoring both compound I and the appearance of compound II.

By solubility is commonly meant how much of the substance goes into solution per volume.

In brackets after ≈: the same amount, converted by molar mass. Read-outs that look alike come from different tables or passages of the source.

For the compound `CC(C)[C@H](N)C(=O)OCC[C@H](NC(=O)[C@@H]1SCCN1S(=O)(=O)c1ccc(-c2ccccc2)cc1)c1ccc(F)cc1` [Compound I, (3S)-3-({[(2S)-3-(biphenyl-4-ylsulfonyl)-1,3-thiazolidin-2-yl]carbonyl}-amino)-3-(4-fluorophenyl)propyl L-valinate], the solubility in data set [1] (FaSSIF, pH 6.5 (fasted state), read-out: Solubility in FaSSIF pH 6.5) came to 70 µg/mL (≈ 117 µM); in data set [1] (FeSSIF, pH 5.0 (fed state), read-out: Solubility in FeSSIF pH 5.0), 90 µg/mL (≈ 150 µM). For the same compound, the “Effect on spontaneous uterine contraction (FIG. 2)” value in data set [2] is “dose-dependent and reversible effect”. Further, the “Conversion to compound II after gastro-intestinal tract administration” value in data set [3] is given as “rapidly converted to compound II”. Besides, in data set [4], the “Non-specific binding in the Caco-2 test system without cells” value was “excluded”. Also, the “Stability in HBSS buffer” value in data set [5] is “stable”. Moreover, the “Conversion of compound I into compound II in Caco-2 test” value with Caco-2 cell monolayer is recorded as “confirmed”. In the data set on Caco-2 cell monolayer (60 and 120 minutes), the “Compound I in receiving (apical) compartment, basolateral to apical” value was “not detected”. Moreover, the “Compound I in receiving (basolateral) compartment, apical to basolateral” value in the data set with Caco-2 cell monolayer (60 and 120 minutes) is given as “not detected”. Moreover, the “Recovery of compound I in apical compartment at end of apical to basolateral experiment” value in the data set with Caco-2 cell monolayer (120 min) was “low recovery”. Also, the “Passage through the Caco-2 cell monolayer” value in the data set on Caco-2 cell monolayer (bi-directional test) was “did not pass through the cell monolayer”. In addition, the “PepT1 mediation of transport across Caco-2 monolayers” value at PepT1 transporter is “likely not mediated by PepT1”. For the same compound, on PepT1 transporter (10 mM Gly-Sar, A→B, 60 and 120 min), the “Compound I in receiving compartment after Gly-Sar pre-treatment” value is “not detected”.
